Experimental data taken from patent US9326973B2, “Hepatitis C virus inhibitors” (priority 2012, dated 2016).

System: HCV replicon, genotype-1a variant with glutamine 30 changed to glutamate in the NS5A protein
Experiment: microbe, parasite or virus in culture
Type: cell-based, HCV genotype 1a
Details: HCV replicon genotype 1a Q30E (Q→E) variant; test compound titrated with an NS5A-targeting compound (BMS-790052 fixed at 200 nM); ranking of synergist activity
Summary of the method: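 Synergy was assessed by combining several fixed amounts of an NS5A-targeting compound with a titration of the second compound of interest.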

Compound | Fold-Synergistic 1a (Q30E) [fold]
CC(C)(C)[C@H](NC(=O)[C@@]1(C)CC(F)(F)CCO1)c1nc(-c2ccc(-c3ccc(-c4c[nH]c([C@@H](NC(=O)[C@@]5(C)CC(F)(F)CCO5)C(C)(C)C)n4)cc3)cc2)c[nH]1 [Compound Y-75] | >100
CC(C)(C)[C@H](NC(=O)[C@H]1CC[C@@](C)(O)CC1)c1nc(-c2ccc(-c3ccc(-c4c[nH]c([C@@H](NC(=O)[C@H]5CC[C@@](C)(O)CC5)C(C)(C)C)n4)cc3)cc2)c[nH]1 [Compound W-175] | >100
CC(C)(C(=O)N[C@H](c1nc(-c2ccc(-c3ccc(-c4c[nH]c([C@@H](NC(=O)C(C)(C)C(=O)NC56CC(C5)C6)C(C)(C)C)n4)cc3)cc2)c[nH]1)C(C)(C)C)C(=O)NC12CC(C1)C2 [Compound W-155] | >100
CC(C)(C)[C@H](NC(=O)C1(CO)CCCCO1)c1nc(-c2ccc(-c3ccc(-c4c[nH]c([C@@H](NC(=O)C5(CO)CCCCO5)C(C)(C)C)n4)cc3)cc2)c[nH]1 (stereo partly shown) [Compound P-182] | >100
Cc1onc(-c2ccccc2)c1C(=O)N1CCC[C@H]1c1ncc(-c2ccc(-c3ccc(-c4cnc([C@@H]5CCCN5C(=O)c5c(-c6ccccc6)noc5C)[nH]4)cc3)cc2)[nH]1 [Compound S-118] | <10
CC1([C@H](NC(=O)[C@@]2(C)CC(F)(F)CCO2)c2nc(-c3ccc(-c4ccc(-c5c[nH]c([C@@H](NC(=O)[C@@]6(C)CC(F)(F)CCO6)C6(C)CC6)n5)cc4)cc3)c[nH]2)CC1 [Compound Y-82] | >100
COC(=O)N[C@@H](C(=O)N[C@@H](C)c1nc(-c2ccc(-c3ccc(-c4c[nH]c([C@H](C)NC(=O)[C@H](NC(=O)OC)C(C)C)n4)cc3)cc2)c[nH]1)C(C)C [Compound N-37] | >10
Cc1c2c(nn1C)CCC(C(=O)N[C@H](c1nc(-c3ccc(-c4ccc(-c5c[nH]c([C@@H](NC(=O)C6CCc7nn(C)c(C)c7C6)C(C)(C)C)n5)cc4)cc3)c[nH]1)C(C)(C)C)C2 (stereo partly shown) [Compound S-278] | >100
O=C(c1cccnc1)N1CCC[C@H]1c1ncc(-c2ccc(-c3ccc(-c4cnc([C@@H]5CCCN5C(=O)c5cccnc5)[nH]4)cc3)cc2)[nH]1 [Compound S-185] | <10
CC(C)(C)NC(C)(C)C(=O)N[C@H](c1nc(-c2ccc(-c3ccc(-c4c[nH]c([C@@H](NC(=O)C(C)(C)NC(C)(C)C)C(C)(C)C)n4)cc3)cc2)c[nH]1)C(C)(C)C [Compound P-175] | >100
CC(C)[C@H](NC(=O)[C@@H]1C[C@H](O)CN1C(=O)OC(C)(C)C)c1nc(-c2ccc(-c3ccc(-c4c[nH]c([C@@H](NC(=O)[C@@H]5C[C@H](O)CN5C(=O)OC(C)(C)C)C(C)C)n4)cc3)cc2)c[nH]1 [Compound W-100] | >100
C=C1C[C@@H](C(=O)N[C@H](c2nc(-c3ccc(-c4ccc(-c5c[nH]c([C@@H](NC(=O)[C@@H]6CC(=C)CN6C(=O)OC(C)(C)C)C(C)C)n5)cc4)cc3)c[nH]2)C(C)C)N(C(=O)OC(C)(C)C)C1 [Compound W-89] | >100
CC(C)(C)[C@H](NC(=O)C(=O)N1CCC(F)CC1)c1nc(-c2ccc(-c3ccc(-c4c[nH]c([C@@H](NC(=O)C(=O)N5CCC(F)CC5)C(C)(C)C)n4)cc3)cc2)c[nH]1 [Compound W-26] | >100
O=C(c1ccc(C(F)(F)F)nc1)N1CCC[C@H]1c1ncc(-c2ccc(-c3ccc(-c4cnc([C@@H]5CCCN5C(=O)c5ccc(C(F)(F)F)nc5)[nH]4)cc3)cc2)[nH]1 [Compound S-140] | >10
CCC(C)C(=O)N1CCC[C@H]1c1ncc(-c2ccc(-c3ccc(-c4cnc([C@@H]5CCCN5C(=O)C(C)CC)[nH]4)cc3)cc2)[nH]1 (stereo partly shown) [Compound S-169] | <10
CC1([C@H](NC(=O)C2(C3(O)CCC(F)(F)CC3)CC2)c2nc(-c3ccc(-c4ccc(-c5c[nH]c([C@@H](NC(=O)C6(C7(O)CCC(F)(F)CC7)CC6)C6(C)CC6)n5)cc4)cc3)c[nH]2)CC1 [Compound P-147] | >100
COc1ccccc1C1OC(=O)C[C@@H]1C(=O)N[C@H](c1nc(-c2ccc(-c3ccc(-c4c[nH]c([C@@H](NC(=O)[C@H]5CC(=O)OC5c5ccccc5OC)C(C)(C)C)n4)cc3)cc2)c[nH]1)C(C)(C)C (stereo partly shown) [Compound S-263] | >10
CC(C)(C)[C@H](NC(=O)C(=O)N1CCCC1)c1nc(-c2ccc(-c3ccc(-c4c[nH]c([C@@H](NC(=O)C(=O)N5CCCC5)C(C)(C)C)n4)cc3)cc2)c[nH]1 [Compound W-21] | >100
CC1(C(=O)N[C@H](c2nc(-c3ccc(-c4ccc(-c5c[nH]c([C@@H](NC(=O)C6(C)OCC7(CC7)CO6)C(C)(C)C)n5)cc4)cc3)c[nH]2)C(C)(C)C)OCC2(CC2)CO1 (stereo partly drawn) [Compound L-84] | >100
CC(C)[C@H](NC(=O)[C@@]1(C)CCC(F)(F)CO1)c1nc(-c2ccc(-c3ccc(-c4c[nH]c([C@@H](NC(=O)[C@@]5(C)CCC(F)(F)CO5)C(C)C)n4)cc3)cc2)c[nH]1 [Compound Y-78] | >100

Compound | Fold-Synergistic 1a (Q30E) [fold]
CC(C)(C(=O)N[C@H](c1nc(-c2ccc(-c3ccc(-c4c[nH]c([C@@H](NC(=O)C(C)(C)C(=O)N5CCC(O)CC5)C(C)(C)C)n4)cc3)cc2)c[nH]1)C(C)(C)C)C(=O)N1CCC(O)CC1 [Compound W-136] | >10
CC(C)(C)[C@H](NC(=O)C1(C2(O)CCC(F)(F)CC2)CC1)c1nc(-c2ccc(-c3ccc(-c4c[nH]c([C@@H](NC(=O)C5(C6(O)CCC(F)(F)CC6)CC5)C(C)(C)C)n4)cc3)cc2)c[nH]1 [Compound P-146] | >100
CC(CF)(CF)OC(=O)NC1(C(=O)N[C@H](c2nc(-c3ccc(-c4ccc(-c5c[nH]c([C@@H](NC(=O)C6(NC(=O)OC(C)(CF)CF)CC6)C(C)(C)C)n5)cc4)cc3)c[nH]2)C(C)(C)C)CC1 [Compound L-27] | >100
Cc1cc(-c2ccc(-c3c[nH]c([C@@H](NC(=O)C(C)(C)C)C(C)(C)C)n3)cc2)ccc1-c1c[nH]c([C@@H](NC(=O)C(C)(C)C)C(C)(C)C)n1 [Compound N-86] | >100
CC(C)CC(=O)N[C@@H](Cc1cccc2ccccc12)c1nc(-c2ccc(-c3ccc(-c4c[nH]c([C@H](Cc5cccc6ccccc56)NC(=O)CC(C)C)n4)cc3)cc2)c[nH]1 [Compound P-7] | <10
CN(CC(F)(F)F)C(C)(C)C(=O)N[C@H](c1nc(-c2ccc(-c3ccc(-c4c[nH]c([C@@H](NC(=O)C(C)(C)N(C)CC(F)(F)F)C(C)(C)C)n4)cc3)cc2)c[nH]1)C(C)(C)C [Compound L-62] | >100
COC(=O)c1ccccc1C(=O)N1CCC[C@H]1c1ncc(-c2ccc(-c3ccc(-c4cnc([C@@H]5CCCN5C(=O)c5ccccc5C(=O)OC)[nH]4)cc3)cc2)[nH]1 [Compound S-115] | <10
CC(C)(C)[C@H](NC(=O)[C@H]1CCCO1)c1nc(-c2ccc(-c3ccc(-c4c[nH]c([C@@H](NC(=O)[C@H]5CCCO5)C(C)(C)C)n4)cc3)cc2)c[nH]1 [Compound L-64] | >100
C[C@@H](OC(=O)N(C)C1(C(=O)N[C@H](c2nc(-c3ccc(-c4ccc(-c5c[nH]c([C@@H](NC(=O)C6(N(C)C(=O)O[C@H](C)C(F)(F)F)CC6)C(C)(C)C)n5)cc4)cc3)c[nH]2)C(C)(C)C)CC1)C(F)(F)F [Compound L-44] | >100
CC(C)(C)[C@H](NC(=O)[C@H](O)C(F)(F)F)c1nc(-c2ccc(-c3ccc(-c4c[nH]c([C@@H](NC(=O)[C@H](O)C(F)(F)F)C(C)(C)C)n4)cc3)cc2)c[nH]1 [Compound L-81] | >100
COC(C)(C)C(=O)N[C@H](c1nc(-c2ccc(-c3ccc(-c4c[nH]c([C@@H](NC(=O)C(C)(C)OC)C(C)C)n4)cc3F)cc2)c[nH]1)C(C)C [Compound N-96] | >100
C[C@@H]1CCCCN1C(=O)C(=O)N[C@H](c1nc(-c2ccc(-c3ccc(-c4c[nH]c([C@@H](NC(=O)C(=O)N5CCCC[C@H]5C)C(C)(C)C)n4)cc3)cc2)c[nH]1)C(C)(C)C [Compound W-38] | >100
COC(C)(C)C(=O)N[C@H](c1nc(-c2ccc(-c3ccc(-c4c[nH]c([C@@H](NC(=O)C(C)(C)OC)C(C)C)n4)c(F)c3)cc2)c[nH]1)C(C)C [Compound N-87] | >100
N#Cc1ccccc1C(=O)N1CCC[C@H]1c1ncc(-c2ccc(-c3ccc(-c4cnc([C@@H]5CCCN5C(=O)c5ccccc5C#N)[nH]4)cc3)cc2)[nH]1 [Compound S-127] | <10
COC(=O)N[C@@H]1CCCCC1C(=O)N[C@H](c1nc(-c2ccc(-c3ccc(-c4c[nH]c([C@@H](NC(=O)C5CCCC[C@H]5NC(=O)OC)C(C)(C)C)n4)cc3)cc2)c[nH]1)C(C)(C)C (stereo partly shown) [Compound S-275] | >100
CCC(CC)(NC(=O)OC(C)(C)C)C(=O)N[C@H](c1nc(-c2ccc(-c3ccc(-c4c[nH]c([C@@H](NC(=O)C(CC)(CC)NC(=O)OC(C)(C)C)C(C)(C)C)n4)cc3)cc2)c[nH]1)C(C)(C)C [Compound L-24] | >100
O=C(Cc1ccccc1)N1CCC[C@H]1c1ncc(-c2ccc(-c3ccc(-c4cnc([C@@H]5CCCN5C(=O)Cc5ccccc5)[nH]4)cc3)cc2)[nH]1 [Compound S-107] | <10
CC(C)(C)[C@H](NC(=O)C1(F)CCCCC1)c1nc(-c2ccc(-c3ccc(-c4c[nH]c([C@@H](NC(=O)C5(F)CCCCC5)C(C)(C)C)n4)cc3)cc2)c[nH]1 [Compound S-286] | >100
CN1CCC(C(=O)N[C@H](c2nc(-c3ccc(-c4ccc(-c5c[nH]c([C@@H](NC(=O)C6CCN(C)CC6)C(C)(C)C)n5)cc4)cc3)c[nH]2)C(C)(C)C)CC1 [Compound S-268] | >10
COC(=O)N[C@@H](C(=O)NC1(c2nc(-c3ccc(-c4ccc(-c5c[nH]c(C6(NC(=O)[C@H](NC(=O)OC)C(C)C)CC=CC6)n5)cc4)cc3)c[nH]2)CC=CC1)C(C)C [Compound N-14] | <10
